Measured values as given in PMC7797697 (Theranostics, 2021).

Experiments:
MDA-MB-231 cells [1] = assay: TUNEL assay; assay type: cell-based, human; settings: compared to DMSO treatment
Excerpt: Apoptosis was detected using a Cell Death Detection Fluorescein Kit for TUNEL assay (RiboBio, Guangzhou, China) according to the manufacturer's instructions. […] Signals were detected by fluorescence microscopy. Non-apoptotic cells were visualized under a DAPI (4′,6-diamidino-2-phenylindole) filter.

MEF = assay: CCK8 assay IC50; assay type: cell-based, mouse; settings: Mus musculus, normal cells, 72 h
Excerpt: (§1) HeLa, MCF-7 and MDA-MB-231 cell lines were purchased from the American Type Culture Collection. MCF-10A, T-47D, PANC-1, A549, HCT-15, Caco-2, SMMC-7721, SH-SY5Y, HUVEC and PC-3 cell lines were obtained from the Chinese Academy of Medical Sciences. MEF was isolated from pregnant mice at 14‒16 days of pregnancy. Primary breast cancer cells were isolated from breast cancer patients. All media including Dulbecco Modified Eagle Medium (DMEM), RPMI 1640 Medium and DMEM/Nutrient Mixture F-12 were supplemented with 10% fetal bovine serum (FBS), 100 units/mL penicillin, and […] streptomycin (Gibco, Waltham, MA, USA). Cells were cultured in a humidified incubator equilibrated with 5% CO2 at 37 °C. Cells were treated for 24-72 h in adherent conditions with compounds from an epigenetic small molecule inhibitor library (L1200, Topscience, Shanghai, China).
(§2) Cell viability was then detected using a CCK8 assay (MedChemExpress, USA) according to the manufacturer's instructions.
(§3) Statistical analyses of all data were performed using GraphPad Prism (version 8.0, Graph Pad Software Inc., San Diego, CA, USA). All the data were analyzed by Student's t-test or one-way ANOVA. The Z-Score was chosen to evaluate the results and experimental deviation. Quantitative data are presented as the mean ± SD. […] IC50 was calculated using a four-parameter fit with variable slope in GraphPad Prism.

[2] = test system: Gαq, PLCβ3, PMCA1 and PMCA4b in MDA-MB-231 cells; assay: Expression of calcium influx and efflux markers (Western blot, RT-qPCR); assay type: cell-based, human
Description: (§4) Reverse transcription was performed using the RevertAid First Strand cDNA Synthesis Kit ([…]) according to the manufacturer's instructions. The primers for the detection of target mRNA are shown in Table S2. β-actin was used as an internal reference. The relative expression of target genes was calculated by the 2^-ΔΔCt method.

MDA-MB-231 cells [3] = assay: RT-qPCR of marker genes; assay type: cell-based, human
Description: as §4

MDA-MB-231 cells [4] = assay: High-content epigenetic inhibitor screen, quantification of living cells; assay type: cell-based, human; settings: 72 h
Excerpt: as §1
(§5) Statistical analyses of all data were performed using GraphPad Prism (version 8.0, Graph Pad Software Inc., San Diego, CA, USA). All the data were analyzed by Student's t-test or one-way ANOVA. The Z-Score was chosen to evaluate the results and experimental deviation. Quantitative data are presented as the mean ± SD. The asterisk (*) denotes statistically significant difference (P < 0.05). IC50 was calculated using a four-parameter fit with variable slope in GraphPad Prism.
To identify potential anti-tumor inhibitors, we screened an epigenetic small molecule inhibitor library for anti-tumor activity in breast cancer cells. […] The selection strategy mainly comprised three stages, in which different concentrations (high to low) of inhibitors screened with a high-content analysis instrument were identified using cancer cell lines in a 96-well plate format (Figure 1A). For the first step, we treated cells with a high concentration of compounds to exclude compounds ineffective in killing cancer cells. MDA-MB-231 cells, a human breast cancer cell line, were treated with 167 epigenetic compounds (30 μM each) for 48 h, and then analyzed by high-content analysis, where changes in cell morphology relative to the control (dimethyl sulfoxide, DMSO) would indicate modulation of cancer cells by compound treatment. […] At the second step, we treated the cells with the 60 compounds at a median concentration (3 μM) for 72 h to screen for inhibitors that can kill cancer cells with high efficiency.

[5] = test system: Primary breast tumor cells; assay: CCK8 assay IC50; assay type: cell-based, human; settings: Homo sapiens, breast cancer, 72 h
Excerpt: as §1, §2, §3

[6] = test system: non-breast cancer cell lines; assay: CCK8 assay IC50, panel summary; assay type: cell-based; settings: panel of non-breast cancer cell lines, 72 h
Description: as §2, §5

[7] = test system: MDA-MB-231, T-47D, and primary breast tumor cells; assay: Wound-healing assay; assay type: cell-based, human; settings: compared with DMSO treatment, P < 0.05
Description: Tumor cell migration was determined by the wound healing assay. […] After treatment, a straight scratch was made onto the cell monolayer using a pipette tip. The cells were washed with PBS three times to remove the floating cells, and the cells were cultured in serum-free medium for 24 h. Cell wound edges were captured using a light microscope.

HUVEC = assay: CCK8 assay IC50; assay type: cell-based, human; settings: 72 h, normal cells
Description: as §2, §5

MDA-MB-231 = assay: CCK8 assay IC50; assay type: cell-based, human; settings: Homo sapiens; MDA-MB-231, 72 h, CCK8, value of the text
Description: as §2, §5

[8] = Pathological examination (H&E) of main organs; assay type: in vivo, nude mice; settings: i.v., 50 mg/kg, every other day for four weeks
Description: MDA-MB-231 (5 × 10^6 cells) were inoculated into the left abdominal mammary fat pad of 6-week-old female nude mice, and tumor growth was monitored. […] After four weeks of treatment, all mice were sacrificed according to ethical guidelines. Tumors were excised and analyzed. Tumor volume was measured using a Vernier caliper and calculated according to the following formula: π/6 × length × width^2. All animal handling and procedures were approved by the Capital Medical University Institutional Animal Care. Tumor and adjacent tissues were rapidly fixed in 4% paraformaldehyde (Sigma-Aldrich) for at least 24 h and embedded in paraffin for microscopic examination. From the prepared paraffin blocks, 5-μm thick sections were cut and stained with hematoxylin and eosin (H&E) for light microscopic observation. Sections were processed as per standard protocols using 3,3'-diaminobenzidine (DAB) staining. All human and mouse tissues were collected according to protocols approved by the Ethics Committee of Capital Medical University, and informed consent was obtained from all patients.

histone deacetylase = assay: Western blot of acetylated histone H3 and acetylated α-tubulin; assay type: cell-based, human; settings: MDA-MB-231 cells, 100 or 200 nM, 24-72 h
Description: Total protein was assessed by sodium dodecyl sulfate-polyacrylamide gel electrophoresis using 10% or 15% gels, followed by immunoblotting with the following antibodies. Anti-glyceraldehyde 3-phosphate dehydrogenase (GAPDH) antibody (AC002) was purchased from ABclonal Technology (Woburn, MA, USA); anti-PLCβ3 antibody (14247) was purchased from Cell Signaling Technology (Danvers, MA, USA); anti-β-actin antibody (ab8226) and anti-histone H3 antibody (ab1791) were purchased from Abcam (Cambridge, UK); anti-ace tubulin antibody (66200-1-lg) was purchased from Proteintech Group (Rosemont, IL, USA); anti-γ-catenin antibody was purchased from BD Biosciences (Franklin Lakes, NJ, USA). The GAPDH and β-actin content were analyzed as the loading control.

[9] = test system: primary breast cancer cells; assay: Intracellular calcium measurement (Fluo-4-AM); assay type: cell-based, human; settings: thrombin stimulation
Description: After treatment, the cells were digested and seeded in 96-well black plates (Corning Costar, Cambridge, MA, USA) and cultured for 20 h. For measurement of [Ca^2+]i, the cells were labeled with Fluo-4-AM in serum-free medium for half an hour at room temperature. After washing with Dulbecco's Phosphate Buffered Saline (D-PBS), cells were overlaid in Hank's balanced salt solution (5.4 mM KCl, 1 mM MgCl2, 20 mM hydroxyethyl piperazineethanesulfonic acid (HEPES), 120 mM NaCl, 10 mM glucose, 0.2 mM Ethylenebis(oxyethylenenitrilo)tetraacetic acid (EGTA)). Continuous fluorescence intensity was detected after thrombin was added as a calcium agonist by an automated sampler. Response over baseline was assessed as a relative measure of [Ca^2+]i.

HeLa = assay: CCK8 assay IC50; assay type: cell-based; settings: Homo sapiens, cervical cancer, 72 h
Description: as §2, §5

SMMC-7721 = assay: CCK8 assay IC50; assay type: cell-based; settings: Homo sapiens, SMMC-7721, liver cancer, 72 h
Description: as §2, §5

A549 = assay: CCK8 assay IC50; assay type: cell-based; settings: Homo sapiens, A549, lung cancer, 72 h
Description: as §2, §5

MCF-7 = assay: CCK8 assay IC50; assay type: cell-based; settings: Homo sapiens, MCF7; MCF-7, 72 h, CCK8, value of the text
Description: as §2, §5

T-47D = assay: CCK8 assay IC50; assay type: cell-based; settings: Homo sapiens, T47D, breast cancer, 72 h
Description: as §2, §5

## CN(C)Cc1c(C(=O)NCCOc2ccc(C(=O)NO)cc2)oc2ccccc12 [PCI-24781]
MDA-MB-231 cells [1]
  apoptosis (TUNEL): higher rate of apoptosis
MEF
  IC50: 15000 nM
[2]; MDA-MB-231, RT-qPCR
  expression levels of PMCA1 and PMCA4b: not affected
[2]; MDA-MB-231, Western blot and RT-qPCR
  expression levels of Gαq and PLCβ3: significantly decreased
MDA-MB-231 cells [3]
  expression of Ca^2+-related pathway markers (SYT1, SYTL2, SYT7, SYT12, TC2N, MMP1, MMP3, PLCβ3): downregulated
  expression of MMP2, MMP15, and MMP16: significantly inhibited
  expression of epithelial markers (α-catenin, γ-catenin): significant upregulation
  mRNA levels of mesenchymal/NE markers (N-cadherin, vimentin, fibronectin, Syn, ASH1, NCAM1): either inhibited or unaffected
MDA-MB-231 cells [4]; 0.15 μM
  cell death: ~ 20%
MDA-MB-231 cells [4]; 3 μM
  effect on cell survival: discernible effects on cell survival
[5]
  IC50: 876 nM
[6]
  IC50: > 1000 nM
[7]
  wound closure (cell migration): significant delay
HUVEC; Homo sapiens
  IC50: 4200 nM
HUVEC
  IC50: 4170 nM
MDA-MB-231
  IC50: 663 nM
[8]
  histological changes in the main organs (heart, liver, lung, spleen, and kidney): did not exhibit serious histological changes
Histone deacetylase
  acetylated histone H3 and acetylated α-tubulin levels: time-dependent and dose-dependent accumulation of acetylated histone H3 (H3) and acetylated α-tubulin
[9]
  amplitude of [Ca^2+]i oscillations: significant decrease in the amplitude
HeLa
  IC50: 1820 nM
SMMC-7721
  IC50: 12000 nM
A549
  IC50: 1160 nM
MCF-7
  IC50: 896 nM
T-47D
  IC50: 2630 nM
